Data reported in patent publication US12122763B2, “Substituted piperidines for androgen receptor degradation” (UBIX THERAPEUTICS, INC., priority 2020, dated 2024).

Target: T1, Androgen Receptor (AR) protein (Homo sapiens, UniProt P10275, T878A)
T1 construct: endogenous in cells; host or cells: LNCaP
Test: Androgen Receptor (AR) protein degradation assay in LNCaP cells, western blotting
Assay type: cell-based
Conditions: 20 h; for inhibition at 0.01 µM: 0.01 μM compound; for inhibition at 0.1 µM: 0.1 μM compound; for inhibition at 1 µM: 1 μM compound
Protocol: Experimental Example 1: Androgen Receptor (AR) Protein Degradation Assay
After treating LNCaP cells with the synthesized Example compound, the amount of AR protein present in the cells was measured. The amount of AR protein was measured using western blotting detection method. The protocol of the experiment using LNCaP cells was as follows:
[Culture] LNCaP cells were resuspended in RPMI1640 MEDIUM (Hyclone, SH30027.01), 10% FBS (Hyclone, SV30207.02), and 1% Penicillin-streptomycin (Welgene, LS 202-02) media to be 3×10^5/mL. Then, 1 mL each was seeded in a 12-well plate. After that, they were cultured for 3 days.
[Compound treatment] 10 μl of 0.1, 1, 10, and 100 μM compound, which is the final compound treatment concentration and a 100× stock of 0.001, 0.01, 0.1, and 1 μM, was added in 1 ml media of each well, and 20 hours later, the cells were harvested.
[Cell Lysis] Cell pellets were suspended using 1% SDS lysis buffer (50 mM Tris, 1 mM EDTA, 1% SDS, pH 8.0, 0.5 mM PMSF, 1× Protease/Phosphatase inhibitor Cocktail (Cell Signaling Technology, 5872s)), and sonication (70% AMP, 5 cycles (30 sec ON/59 sec OFF)) was performed. Cell lysate was obtained after centrifugation at 4° C., 15000 g, for 20 minutes.
[Protein quantification] A BCA protein assay (SMART™ BCA Protein Assay Kit, iNtRON Biotechnology, 21071) was performed using a 96-well microplate. After adding 5 μl cell lysate and 5 μl 1% SDS lysis buffer to each well of the 96-well plate, 200 μl of BCA reagent (Reagent A:Reagent B=50:1) was additionally added. After incubation at 37° C. for 30 minutes, it was cooled at room temperature for 10 minutes. Then, absorbance was measured at a wavelength of 562 nm. The unknown protein concentration was measured using a BSA standard curve (0, 0.125, 0.25, 0.5, 1, 2 mg/ml). Western blotting samples were prepared by mixing cell lysate, 1% SDS lysis buffer, 4× Bolt™ LDS Sample buffer (Invitrogen, B0008), and 10× Bolt™ Sample Reducing Agent (Invitrogen, B0009) and boiling the mixture at 70° C. for 10 minutes.
[Electrophoresis] After loading 8 μg of protein sample into each well of Bolt™ 4 to 12%, Bis-Tris, 1.0 mm Mini Protein Gel, 17-well (Invitrogen, NW04127BOX), Bolt™ MES SDS Running Buffer (Invitrogen, B0002) was used for electrophoresis at 200V (constant V) for 50 minutes.
[Transfer] Using electrophoresis gel and Trans-Blot® Turbo™ Transfer Starter System (Bio-RAD, #17001918, Mini Nitrocellulose), transfer proceeded for 15 minutes under the condition of 1.3A (Constant A) and 25V (Limit V). To confirm protein transfer, 15 ml of Ponceau S solution (Sigma, P7170-1L) was used for staining for 1 minute, followed by washing to confirm the degree of transfer.
[Blocking] Membranes for AR detection were blocked for 45 minutes with 5% skim milk/0.2% TBST (Skim milk: BD, 232100/20× TBS: Biosesang, TR2008-100-00/10% Tween 20 Solution: Bio-RAD, #161-0781). Membranes for GAPDH and β-actin detection were blocked for 45 minutes with Odyssey blocking buffer: 0.1% TBST=1:1 (Odyssey blocking buffer: Li-COR Biosciences, 927-50000).
[Antibody and detection] The primary AR antibody (Androgen Receptor: CST, 5153s) was mixed with 5% skim milk/0.2% TBST at a ratio of 1:1000 and attached for 3 hours at room temperature. Primary β-actin antibody (GeneTex, 629630) was mixed with 5% BSA/0.2% TBST at a ratio of 1:2000 and attached for 3 hours at room temperature. Primary GAPDH antibody (GeneTex, 100118) was mixed with 5% BSA/0.2% TBST at a ratio of 1:2000 and attached for 3 hours at room temperature. After 3 hours, it was washed 3 times every 5 minutes using TBST (0.2% Tween 20). Anti-rabbit IgG, HRP-linked Antibody (CST, 7074s), secondary antibody for the AR antibody was mixed with 5% skim milk/0.2% TBST at a ratio of 1:5000 and attached for 45 minutes at room temperature. […]

T1 sequence (P10275 whole entry T878A): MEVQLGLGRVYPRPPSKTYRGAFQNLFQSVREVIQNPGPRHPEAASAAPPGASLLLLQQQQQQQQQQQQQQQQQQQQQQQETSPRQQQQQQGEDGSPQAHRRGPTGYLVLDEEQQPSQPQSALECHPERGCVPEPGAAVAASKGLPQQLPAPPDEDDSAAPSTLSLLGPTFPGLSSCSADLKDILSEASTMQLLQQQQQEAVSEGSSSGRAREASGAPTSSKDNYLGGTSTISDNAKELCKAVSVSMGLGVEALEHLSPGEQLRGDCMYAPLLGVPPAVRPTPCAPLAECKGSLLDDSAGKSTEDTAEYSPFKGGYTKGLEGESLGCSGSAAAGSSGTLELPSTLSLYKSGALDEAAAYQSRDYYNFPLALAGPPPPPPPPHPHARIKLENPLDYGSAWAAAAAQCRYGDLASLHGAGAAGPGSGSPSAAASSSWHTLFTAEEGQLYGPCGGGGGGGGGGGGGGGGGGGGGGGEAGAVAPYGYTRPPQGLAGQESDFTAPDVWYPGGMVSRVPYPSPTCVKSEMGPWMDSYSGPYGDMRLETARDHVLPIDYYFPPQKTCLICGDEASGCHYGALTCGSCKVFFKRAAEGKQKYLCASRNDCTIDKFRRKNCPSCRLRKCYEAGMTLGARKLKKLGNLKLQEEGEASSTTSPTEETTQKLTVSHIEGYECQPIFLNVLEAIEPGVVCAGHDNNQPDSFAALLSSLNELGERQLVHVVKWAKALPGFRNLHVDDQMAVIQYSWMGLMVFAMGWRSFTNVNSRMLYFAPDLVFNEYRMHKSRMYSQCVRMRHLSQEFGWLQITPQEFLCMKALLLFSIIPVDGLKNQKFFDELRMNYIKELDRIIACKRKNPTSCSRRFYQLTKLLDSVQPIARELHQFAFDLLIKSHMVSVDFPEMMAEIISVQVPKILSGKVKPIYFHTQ
T1 sequence (Q96SW2 whole entry partner): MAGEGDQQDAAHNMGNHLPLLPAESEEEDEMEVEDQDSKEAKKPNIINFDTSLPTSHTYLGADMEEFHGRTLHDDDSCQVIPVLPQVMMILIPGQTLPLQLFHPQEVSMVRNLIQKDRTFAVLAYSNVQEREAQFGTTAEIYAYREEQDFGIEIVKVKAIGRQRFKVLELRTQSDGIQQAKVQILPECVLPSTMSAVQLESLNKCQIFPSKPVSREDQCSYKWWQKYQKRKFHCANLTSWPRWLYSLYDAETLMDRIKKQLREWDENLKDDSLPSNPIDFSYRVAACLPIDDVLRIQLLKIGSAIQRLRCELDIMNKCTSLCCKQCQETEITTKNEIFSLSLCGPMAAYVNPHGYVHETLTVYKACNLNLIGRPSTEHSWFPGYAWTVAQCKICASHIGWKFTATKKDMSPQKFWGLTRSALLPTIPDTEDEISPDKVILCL

SMILES: N#Cc1ccc(N2CCC(C(=O)Nc3ccc(N4CCC(CN5CCN(C[C@H]6CCN(c7ccc8c(c7)C(=O)N(C7CCC(=O)NC7=O)C8=O)C6)CC5)CC4)cn3)CC2)cc1C(F)(F)F (stereo partly drawn) [Example 14, 1-(4-cyano-3-(trifluoromethyl)phenyl)-N-(5-(4-((4-(((3R)-1-(2-(2,6-dioxopiperidin-3-yl)-1,3-dioxoisoindolin-5-yl)pyrrolidin-3-yl)methyl)piperazin-1-yl)methyl)piperidin-1-yl)pyridin-2-yl)piperidine-4-carboxamide]
- inhibition at 0.01 µM: 72%
- inhibition at 0.1 µM: 98%
- inhibition at 1 µM: 97%

SMILES: N#Cc1ccc(N2CCC(C(=O)Nc3ccc(N4CCC(CN5CCN(C[C@@H]6CCN(c7ccc8c(c7)C(=O)N(C7CCC(=O)NC7=O)C8=O)C6)CC5)CC4)cn3)CC2)cc1C(F)(F)F (stereo partly drawn) [Example 15, 1-(4-cyano-3-(trifluoromethyl)phenyl)-N-(5-(4-((4-(((3S)-1-(2-(2,6-dioxopiperidin-3-yl)-1,3-dioxoisoindolin-5-yl)pyrrolidin-3-yl)methyl)piperazin-1-yl)methyl)piperidin-1-yl)pyridin-2-yl)piperidine-4-carboxamide]
- inhibition at 0.01 µM: 60%
- inhibition at 0.1 µM: 97%
- inhibition at 1 µM: 98%

SMILES: N#Cc1ccc(N2CCC(C(=O)Nc3ccc(N4CCC(CN5CCN(C[C@H]6CCCN(c7ccc8c(c7)C(=O)N(C7CCC(=O)NC7=O)C8=O)C6)CC5)CC4)cn3)CC2)cc1C(F)(F)F (stereo partly drawn) [Example 16, 1-(4-cyano-3-(trifluoromethyl)phenyl)-N-(5-(4-((4-(((3R)-1-(2-(2,6-dioxopiperidin-3-yl)-1,3-dioxoisoindolin-5-yl)piperidin-3-yl)methyl)piperazin-1-yl)methyl)piperidin-1-yl)pyridin-2-yl)piperidine-4-carboxamide]
- inhibition at 0.01 µM: 50%
- inhibition at 0.1 µM: 94%
- inhibition at 1 µM: 97%

SMILES: N#Cc1ccc(N2CCC(C(=O)Nc3ccc(N4CCC(CN5CCN(C[C@@H]6CCCN(c7ccc8c(c7)C(=O)N(C7CCC(=O)NC7=O)C8=O)C6)CC5)CC4)cn3)CC2)cc1C(F)(F)F (stereo partly drawn) [Example 17, 1-(4-cyano-3-(trifluoromethyl)phenyl)-N-(5-(4-((4-(((3S)-1-(2-(2,6-dioxopiperidin-3-yl)-1,3-dioxoisoindolin-5-yl)piperidin-3-yl)methyl)piperazin-1-yl)methyl)piperidin-1-yl)pyridin-2-yl)piperidine-4-carboxamide]
- inhibition at 0.01 µM: 44%
- inhibition at 0.1 µM: 90%
- inhibition at 1 µM: 90%

SMILES: N#Cc1ccc(N2CCC(C(=O)Nc3ccc(N4CCC(CN5CCN(CC6CCN(c7cc8c(cc7F)C(=O)N(C7CCC(=O)NC7=O)C8=O)CC6)CC5)CC4)cn3)CC2)cc1C(F)(F)F (stereo not drawn) [Example 18, 1-(4-cyano-3-(trifluoromethyl)phenyl)-N-(5-(4-((4-((1-(2-(2,6-dioxopiperidin-3-yl)-6-fluoro-1,3-dioxoisoindolin-5-yl)piperidin-4-yl)methyl)piperazin-1-yl)methyl)piperidin-1-yl)pyridin-2-yl)piperidine-4-carboxamide]
- inhibition at 0.01 µM: 36%
- inhibition at 0.1 µM: 93%
- inhibition at 1 µM: 95%

SMILES: N#Cc1ccc(N2CCC(C(=O)Nc3ccc(N4CCC(CN5CCN(C[C@H]6CCN(c7cc8c(cc7F)C(=O)N(C7CCC(=O)NC7=O)C8=O)C6)CC5)CC4)cn3)CC2)cc1C(F)(F)F (stereo partly drawn) [Example 19, 1-(4-cyano-3-(trifluoromethyl)phenyl)-N-(5-(4-((4-(((3R)-1-(2-(2,6-dioxopiperidin-3-yl)-6-fluoro-1,3-dioxoisoindolin-5-yl)pyrrolidin-3-yl)methyl)piperazin-1-yl)methyl)piperidin-1-yl)pyridin-2-yl)piperidine-4-carboxamide]
- inhibition at 0.01 µM: 42%
- inhibition at 0.1 µM: 93%
- inhibition at 1 µM: 96%

SMILES: N#Cc1ccc(N2CCC(C(=O)Nc3ccc(N4CCC(CN5CCN(CC6CN(c7cc8c(cc7F)C(=O)N(C7CCC(=O)NC7=O)C8=O)C6)CC5)CC4)cn3)CC2)cc1C(F)(F)F (stereo not drawn) [Example 20, 1-(4-cyano-3-(trifluoromethyl)phenyl)-N-(5-(4-((4-((1-(2-(2,6-dioxopiperidin-3-yl)-6-fluoro-1,3-dioxoisoindolin-5-yl)azetidin-3-yl)methyl)piperazin-1-yl)methyl)piperidin-1-yl)pyridin-2-yl)piperidine-4-carboxamide]
- inhibition at 0.01 µM: 67%
- inhibition at 0.1 µM: 97%
- inhibition at 1 µM: 97%

SMILES: N#Cc1ccc(N2CCC(C(=O)Nc3ccc(N4CCC(CN5CCN(CC6CCN(c7ccc8c(c7)C(=O)N(C7CCC(=O)NC7=O)C8=O)CC6)CC5)CC4)cc3)CC2)cc1C(F)(F)F (stereo not drawn) [Example 21, 1-(4-cyano-3-(trifluoromethyl)phenyl)-N-(4-(4-((4-((1-(2-(2,6-dioxopiperidin-3-yl)-1,3-dioxoisoindolin-5-yl)piperidin-4-yl)methyl)piperazin-1-yl)methyl)piperidin-1-yl)phenyl)piperidine-4-carboxamide]
- inhibition at 0.01 µM: 47%
- inhibition at 0.1 µM: 50%
- inhibition at 1 µM: 63%

SMILES: N#Cc1ccc(N2CCC(C(=O)Nc3ccc(N4CCC(CN5CCN(C[C@H]6CCN(c7ccc8c(c7)C(=O)N(C7CCC(=O)NC7=O)C8=O)C6)CC5)CC4)cc3)CC2)cc1C(F)(F)F (stereo partly drawn) [Example 22, 1-(4-cyano-3-(trifluoromethyl)phenyl)-N-(4-(4-((4-(((3R)-1-(2-(2,6-dioxopiperidin-3-yl)-1,3-dioxoisoindolin-5-yl)pyrrolidin-3-yl)methyl)piperazin-1-yl)methyl)piperidin-1-yl)phenyl)piperidine-4-carboxamide]
- inhibition at 0.01 µM: 1%
- inhibition at 0.1 µM: 24%
- inhibition at 1 µM: 49%

SMILES: C[C@@H]1CN(CC2CCN(c3ccc4c(c3)C(=O)N(C3CCC(=O)NC3=O)C4=O)CC2)CCN1CC1CCN(c2ccc(NC(=O)C3CCN(c4ccc(C#N)c(C(F)(F)F)c4)CC3)nc2)CC1 (stereo partly drawn) [Example 23, 1-(4-cyano-3-(trifluoromethyl)phenyl)-N-(5-(4-(((2R)-4-((1-(2-(2,6-dioxopiperidin-3-yl)-1,3-dioxoisoindolin-5-yl)piperidin-4-yl)methyl)-2-methylpiperazin-1-yl)methyl)piperidin-1-yl)pyridin-2-yl)piperidine-4-carboxamide]
- inhibition at 0.01 µM: 69%
- inhibition at 0.1 µM: 98%
- inhibition at 1 µM: 97%

SMILES: C[C@@H]1CN(CC2CN(c3ccc4c(c3)C(=O)N(C3CCC(=O)NC3=O)C4=O)C2)CCN1CC1CCN(c2ccc(NC(=O)C3CCN(c4ccc(C#N)c(C(F)(F)F)c4)CC3)nc2)CC1 (stereo partly drawn) [Example 24, 1-(4-cyano-3-(trifluoromethyl)phenyl)-N-(5-(4-(((2R)-4-((1-(2-(2,6-dioxopiperidin-3-yl)-1,3-dioxoisoindolin-5-yl)azetidin-3-yl)methyl)-2-methylpiperazin-1-yl)methyl)piperidin-1-yl)pyridin-2-yl)piperidine-4-carboxamide]
- inhibition at 0.01 µM: 53%
- inhibition at 0.1 µM: 96%
- inhibition at 1 µM: 95%
